Measurements as given in EP2767543B1, “SALTS OF CARBAMOYL PHOSPHONIC ACID ESTERS WHICH ACT AS SELECTIVE INHIBITORS OF HUMAN IMMUNODEFICIENCY VIRUS HIV-1 PRODUCTION” (Aktsionernoe Obshcestvo "Proizvodstvenno-Kommercheskaya …, priority 2011, dated 2013).

Tests used:
[1] = Stability analysis of 1% water solutions at room temperature; assay type: physicochemical; conditions: within a month
Procedure: The stability analysis for the obtained compounds in the form of 1% water solutions at room temperature was carried out. The acid form of the carbamoyl phosphonate and ammonia salt degrade by 40% and 2%, respectively, within a month; no destruction products were detected for the rest of salts within a month.

[2] = system: HIV-1, GVK4046; assay: HIV-1 reproduction inhibition in MT-4 cell culture (p24 ELISA and MTT cell vitality, day 4); assay type: cell-based; conditions: HIV-1, GVK4046 in MT-4 cell culture, 4 days; read-out: ID50 (the source's name)
Procedure: The HIV inhibition study includes cultivation of primary infective MT-4 line lymphoid cells over the studied compounds, the ultimate concentrations of which in the culture medium range from 0.001 µg/ml to 100 µg/ml, during one passage, within 4 days.
HIV reproduction inhibition in the sensitive cell culture is determined by the reduction in p24 virus-specific protein accumulation (according to the enzyme-linked immunosorbent assay) and by the increase in cell vitality over the drug as compared with the reference cells, on Day 4 of the cultivation, using 3-(4.5-dimethylthiazole-2-yl-)-2,5-diphenyl tetrazolium (MTT) bromide staining.
The impact of the studied compounds on HIV-1 reproduction in MT-4 cell culture is studied using a well-known technique.

[3] = system: MT-4 cells; assay: Cytotoxicity assessment in MT-4 cells (MTT / formazan method, 4 days); assay type: cell-based; conditions: concentration that reduces MT-4 cell vitality by 50%, day 4, MTT
Procedure: Cytotoxicity of a drug is estimated by adding its delution in RPMI-1640 serum-free medium to MT-4 cell suspension placed in cavities of the 96-cavity board (Cel-Cult, England), up to the ultimate concentrations of 0.001-100 µg/ml (three cavities per dose), with subsequent cultivation at 37°C within 4 days. The inoculation concentration is 0.5x10^6 cell particles in 1 mm. The cells, to which the drug was not added and was substituted with the same quantity of the serum-free medium, serve as the reference. The cell vitality is counted on Day 4 of cultivation, using the formazan method (intravital staining of MTT cells). Toxicity of different drug doses is determined by the cell vitality as compared with the reference cells; the dose-dependent curve is built using obtained data, and the concentration that reduces cell vitality by 50% (CD50) is determined. […] It is also noteworthy that 50% toxic doses exceed HIV-1 effective doses by a factor of 2-4 (see Table 1) .

Cc1cn([C@H]2C[C@H](N=[N+]=[N-])[C@@H](COP(=O)(O)C(N)=O)O2)c(=O)[nH]c1=O [Acid form (reference), [(2S,3S,5R)-3-azido-5-(5-methyl-2,4-deoxythymidine-1-yl)oxolan-2-yl]methyl ester of carbamoyl phosphonic acid, reference compound]
degrade [1]: 40% | IC50 [2]: 800 nM | CD50 [3]: 2.6 µM
